# Target: recombinant human nicotinic acid receptor (NAR) (Homo sapiens, UniProt Q8TDS4)
# Experiment: Nicotinic Acid Receptor Assay: inhibition of forskolin-stimulated cAMP accumulation in CHO cells (MesoScale Discovery cAMP kit)
# Format: cell-based
# Settings: CHO cells expressing recombinant human NAR; forskolin-stimulated cAMP; read-out: NA EC50 camp
# In short: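 Compounds were diluted in PBS containing 6 μM forskolin and incubated with cells for 30 min at room temperature. cAMP was quantified by the MesoScale kit against an on-plate standard curve.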
# Sequence of recombinant human nicotinic acid receptor (NAR) (Q8TDS4 whole entry): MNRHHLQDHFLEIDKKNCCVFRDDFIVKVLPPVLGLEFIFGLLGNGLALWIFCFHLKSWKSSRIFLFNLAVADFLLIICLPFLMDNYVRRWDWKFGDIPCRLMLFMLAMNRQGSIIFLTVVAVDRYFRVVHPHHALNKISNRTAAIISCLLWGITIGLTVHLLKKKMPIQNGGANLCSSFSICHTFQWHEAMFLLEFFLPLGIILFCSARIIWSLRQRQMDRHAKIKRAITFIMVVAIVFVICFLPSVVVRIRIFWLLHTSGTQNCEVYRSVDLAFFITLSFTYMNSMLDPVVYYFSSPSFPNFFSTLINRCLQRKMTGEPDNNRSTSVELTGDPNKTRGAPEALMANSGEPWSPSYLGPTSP
row,EC50,Compound
1,100 to 1000 nM,CCc1cc(=O)oc2nc(OC[C@H](O)c3ccccc3)[nH]c(=O)c12 [Compound 633]
2,100 to 1000 nM,O=c1cc(CCCc2cccs2)c2c(=O)n(C3CCC3)c(=O)[nH]c2o1 [Compound 281]
3,100 to 1000 nM,CC1(CCCc2cc(=O)oc3[nH]c(=O)n(C4CCC4)c(=O)c23)CC1 [Compound 285]
4,100 to 1000 nM,O=c1[nH]c(=O)c2c(CCCc3cn(Cc4ccccc4)nn3)cc(=O)oc2[nH]1 [Compound 251]
5,0.001 to 100 nM,CCc1noc(C)c1COc1nc2oc(=O)cc(CC)c2c(=O)[nH]1 [Compound 666]
6,100 to 1000 nM,N#CC1(CCCc2cc(=O)oc3[nH]c(=O)[nH]c(=O)c23)CC1 [Compound 294]
7,100 to 1000 nM,O=c1[nH]c(=O)c2c(C3CCCCC3)cc(=O)oc2[nH]1 [Compound 212]
8,> 1000 nM,CCc1cc(=O)oc2nc(OCc3ccc(-n4cncn4)cc3)[nH]c(=O)c12 [Compound 628]
9,100 to 1000 nM,CCc1cc(=O)oc2nc(OCc3ccccc3-c3ccc(F)c(C#N)c3)[nH]c(=O)c12 [Compound 584]
10,100 to 1000 nM,CCc1cc(=O)oc2nc(OCc3ccccc3-n3ccnc3)[nH]c(=O)c12 [Compound 570]
11,0.001 to 100 nM,CCc1cc(=O)oc2nc(OCCS(=O)(=O)c3ccc(Cl)cc3)[nH]c(=O)c12 [Compound 591]
12,100 to 1000 nM,O=c1[nH]c(=O)c2c(CCCOC3CCCC3)cc(=O)oc2[nH]1 [Compound 271]
13,> 1000 nM,CCc1cc(=O)oc2nc(OCCOC3CCCCC3)[nH]c(=O)c12 [Compound 610]
14,100 to 1000 nM,CCc1cc(=O)oc2nc(OCc3c(-c4c(Cl)cccc4Cl)noc3C)[nH]c(=O)c12 [Compound 647]
15,> 1000 nM,CCCCc1c(-c2ccc(F)cc2)c(=O)oc2[nH]c(=O)[nH]c(=O)c12 [Compound 706]
16,100 to 1000 nM,CCc1cc(=O)oc2nc(OCc3ccc4c(c3)nnn4C)[nH]c(=O)c12 [Compound 543]
17,> 1000 nM,CCc1cc(=O)oc2nc(OCc3cccc(-c4ccc(F)cc4)c3)[nH]c(=O)c12 [Compound 566]
18,100 to 1000 nM,CCc1cc(=O)oc2nc(OCc3cc(C)nn3C)[nH]c(=O)c12 [Compound 529]
19,100 to 1000 nM,O=c1[nH]c(=O)c2c(Cc3ccc(-c4ccccc4F)cc3)cc(=O)oc2[nH]1 [Compound 205]

# Same assay, conditions: NA EC50 camp, inhibition of forskolin-stimulated cAMP accumulation, CHO cells expressing recombinant human NAR
row,EC50,Compound
1,> 10000 nM,CCc1cc(=O)oc2nc[nH]c(=O)c12 [Compound 807]

# Same assay, conditions: inhibition of forskolin-stimulated cAMP accumulation, CHO cells expressing recombinant human NAR; read-out: NA EC50 camp
row,EC50,Compound
1,5330 nM,CCOc1nc(=O)[nH]c2oc(=O)cc(CCC3CCC3)c12 [Compound 786]
2,259 nM,CC#CCOc1nc2oc(=O)cc(CCCC3CC3)c2c(=O)[nH]1 [Compound 717]
3,616 nM,CCCc1cc(=O)oc2[nH]c(=O)nc(OCCF)c12 [Compound 825]
4,882 nM,CCCCc1cc(=O)oc2[nH]c(=O)nc(OCC(F)(F)F)c12 [Compound 829]
5,2060 nM,CCCCc1cc(=O)oc2c1c(=O)[nH]c(=O)n2O [Compound 805]
6,59.5 nM,CCCCc1cc(=O)oc2nc(OCC#CC(C)O)[nH]c(=O)c12 (stereo not drawn) [Compound 737]
7,> 10000 nM,CCc1cc(=O)n(C)c2[nH]c(=O)[nH]c(=O)c12 [Compound 808]
8,3250 nM,COn1c(=O)nc(OCCF)c2c(CCC3CCC3)cc(=O)oc21 [Compound 826]
9,28 nM,COn1c(=O)[nH]c2oc(=O)cc(CCCC3CC3)c2c1=O [Compound 774]
10,5600 nM,CCOn1c(=O)[nH]c2oc(=O)cc(CCC3CCC3)c2c1=O [Compound 777]

# Reference: patent US7737155B2, “Nitrogen-containing heterocyclic compounds and methods of use thereof” (Schering Corporation, priority 2005, dated 2010)
